Columns and labels:
[1] = system: Aβ generation in CHO/β-arrestin 2/GPR3 cells; assay: Aβ1-40 and Aβ1-42 ELISA of culture supernatants after siRNA transfection of CHO/β-arrestin 2/GPR3 cells; type: cell-based, Chinese hamster; conditions: 20 μg siRNA, FIG. 6
Text: Chemically synthesized, double-stranded siRNAs targeting β-arrestin 1 or 2 with 19-nucleotide duplex RNA and 2-nucleotide 3′-dTdT overhangs containing fluorescent tags to determine transfection efficiency were purchased from Qiagen. The sequences of the siRNA have been previously described (Aim et al. 2003; 2004; see also Table 1). As a control, non-silencing siRNA with the sequence 5′-[…]-3′ (SEQ ID NO:10) was used in the experiment. The PathHunter™ Chinese hamster ovary (CHO) GPR3 β-arrestin 2 cell line, which stably expresses GPR3 and β-arrestin 2, was transfected with 20 μg of siRNA using the GeneSilencer Transfection reagent (Genlantis) as previously described by Aim et al. (2003). Forty-eight hours following transfection, cells were divided into six-well and 96-well plates for further experiments. Twenty-four hours after plating, cells were placed in serum-free medium for an additional 24 hours. The PathHunter™ β-arrestin assay was performed on the cells in the 96-well plate to determine the extent of β-arrestin 2 recruitment to GPR3 following a reduction in the expression of β-arrestin 1 or β-arrestin 2.
Culture supernatant samples were collected from cells seeded in the six-well plates to determine the effect of a reduction in β-arrestin 2 recruitment to GPR3 on Aβ1-40 and Aβ1-42 generation. […]

[2] = system: Aβ generation in HEK293 APP695 cells; assay: Aβ1-40 and Aβ1-42 ELISA of culture supernatants after siRNA transfection of HEK293 APP695 cells; type: cell-based; conditions: HEK293 APP695 cells co-transfected with human GPR3 plasmid, 20 μg siRNA
Text: FIGS. 1A and 1B: Effect of siRNA-mediated β-arrestin depletion on Aβ1-40 (FIG. 1A) and Aβ1-42 (FIG. 1B) generation in HEK293 APP695 cells. Cells were transfected with pcDNA or GPR3, and siRNA targeting β-arrestin 1, 2, both, or a non-silencing (control) RNA duplex prior to measurement of Aβ1-40 (FIG. 1A) and Aβ1-42 (FIG. 1B) secretion in cell culture supernatants by ELISA. The results are expressed as the mean percentage ±SD of three independent experiments performed in duplicate relative to non-silencing siRNA (control).
Chemically synthesized, double-stranded siRNAs targeting β-arrestin 1 or 2 with 19-nucleotide duplex RNA and 2-nucleotide 3′-dTdT overhangs containing fluorescent tags to determine transfection efficiency were purchased from Qiagen. The sequences of the siRNA have been previously described (Ahn et al. 2003; 2004; see also Table 1). As a control, non-silencing siRNA with the sequence 5′-[…]-3′ (SEQ ID NO:10) was used in the experiment. […]
To directly determine the requirement of β-arrestin 1 or 2 for constitutive and GPR3-mediated Aβ generation, Aβ levels were measured in HEK293 APP695 cells following transfection with siRNA that specifically targets either β-arrestin 1 or 2 or both. β-arrestin 2 siRNA reduced constitutive Aβ1-40 and Aβ1-42 generation. […]

[3] = system: β-arrestin 2 recruitment to GPR3; assay: PathHunter β-arrestin assay after siRNA transfection of the CHO GPR3 β-arrestin 2 cell line; type: cell-based, Chinese hamster; conditions: PathHunter CHO GPR3 β-arrestin 2 cells, 20 μg siRNA, FIG. 5
Text: A modified β-galactosidase complementation assay, referred to as PathHunter™ technology, is another preferred assay method (Olson and Eglen 2007). The principle of the assay is the detection of an interaction between GPR3 and β-arrestin following receptor activation. The assay is unique because it provides a direct measure of β-arrestin binding, whereas imaging assays detect the movement of β-arrestin. […] The assay makes use of a low affinity peptide derived from the amino-terminus of Escherichia coli β-galactosidase, which is tethered to the carboxy-terminus of GPR3 (ProLink™ tag), and a w-deletion mutant of β-galactosidase, which is fused to β-arrestin (enzyme acceptor or EA). The use of the low-affinity ProLink™ peptide ensures that the enzyme fragment complementation (EFC) reaction is driven by the receptor-stimulated, reversible interaction of GPR3 with β-arrestin and not by β-galactosidase complementation in the absence of receptor stimulation. Thus, complementation between β-arrestin and GPR3 results in the formation of a functional enzyme that is capable of hydrolyzing a substrate and generating a chemiluminescent signal. Given the finding that β-arrestin modulates Aβ release, the PathHunter™ β-arrestin assay would facilitate the identification of potential allosteric modulators of Aβ generation. […]

## 5′-AAAGCCUUCUGCGCGGAGAAU-3′ [β-arrestin 1 siRNA]
[1]
  Aβ1-40 generation: did not affect
  Aβ1-42 generation: modestly stimulated
[2]; FIG. 1A
  Aβ1-40 generation with GPR3 co-transfection: further reduction
[2]; FIG. 1B
  Aβ1-42 generation with GPR3 co-transfection: further reduction
[3]
  β-arrestin 2 recruitment to GPR3 (chemiluminescent signal): clear increase

— patent US8580493B2, “Screening for compounds that modulate GPR3-mediated beta-arrestin signaling and amyloid beta peptide generation” (VIB VZW, priority 2009, dated 2013)
